For the assay, the target named is T1, histamine H4 receptor (Homo sapiens, UniProt Q9H3N8).
T1 construct: expressed in transfected cells; host or cells: CHO cells
The assay is described as follows: H4 binding, method 1 ([3H]-histamine filtration binding on CHO cell membranes). The conditions noted are these: for inhibition at 10 µM / inhibition at 20 µM: 1.5 h; for Ki: H4 binding, method 1, Ki calculated from IC50 (Cheng-Prussoff); for Method 1, activity at top dose (10 μM): top dose 10 μM. Summed up:
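Membranes from CHO cells expressing human H4 receptor (20-35 μg/well) incubated 90 min at room temperature with 3 nM [3H]-histamine in 50 mM Tris-HCl pH 7.4, ± competitor. Bound label separated by filtration on PEI-soaked GF/B filters and counted by scintillation; non-specific binding with 10 μM JNJ7777120.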

Data on 37 molecules can be found in US7943628B2, “Pyrimidine derivatives” (Pfizer Limited, priority 2005, dated 2011).

T1 sequence (Q9H3N8 whole entry): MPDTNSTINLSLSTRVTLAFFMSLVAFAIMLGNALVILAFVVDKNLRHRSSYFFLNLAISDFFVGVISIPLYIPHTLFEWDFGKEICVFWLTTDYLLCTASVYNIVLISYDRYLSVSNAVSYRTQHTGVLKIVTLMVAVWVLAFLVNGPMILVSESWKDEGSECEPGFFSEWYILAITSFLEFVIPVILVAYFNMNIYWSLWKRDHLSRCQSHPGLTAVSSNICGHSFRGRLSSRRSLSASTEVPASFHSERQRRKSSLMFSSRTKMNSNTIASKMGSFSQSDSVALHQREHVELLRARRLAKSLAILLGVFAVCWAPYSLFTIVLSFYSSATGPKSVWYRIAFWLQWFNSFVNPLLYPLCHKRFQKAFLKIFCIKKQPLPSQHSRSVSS

As a reminder, the inhibition is the percentage by which the read-out fell short of the control. A higher inhibition goes with a response far below the control. Consider `CC(C)(C)CCNc1cc(N[C@H]2CCN(Cc3ccccc3)C2)ncn1` [Example 289, N-[(3S)-1-Benzylpyrrolidin-3-yl]-N′-(3,3-dimethylbutyl)pyrimidine-4,6-diamine], for which the inhibition at 10 µM was found to be 44%. Regarding `c1nc(NC[C@@H]2CCCO2)cc(N[C@H]2CCNC2)n1` [Example 290, N-[(3S)-Pyrrolidin-3-yl]-N′-[(2S)-tetrahydrofuran-2-ylmethyl]pyrimidine-4,6-diamine], the inhibition at 10 µM came to 24%. As for `CN[C@@H]1CCN(c2ncnc(NCC3CC3)c2C)C1` [Example 291, N-(Cyclopropylmethyl)-5-methyl-6-[(3R)-3-(methylamino)pyrrolidin-1-yl]pyrimidin-4-amine], the “Method 1, activity at top dose (6.3 μM)” value (top dose 6.3 μM) is “No activity at top”.

The Ki is a dissociation constant, usually derived from enzyme kinetics or from competition with a known ligand. Turning to `CC(C)(C)CCNc1cc(N2CCC(N)C2)ncn1` (stereo not shown) [Example 292, 6-(3-Aminopyrrolidin-1-yl)-N-(3,3-dimethylbutyl)pyrimidin-4-amine], the inhibition constant Ki was 2590 nM.

For `CN1CCN(c2cc(N3CCOCC3)ncn2)CC1` [Example 293, 4-[6-(4-Methylpiperazin-1-yl)pyrimidin-4-yl]morpholine], the Ki was 3040 nM. For `CNC1CCCN(c2cc(NCC3CC3)nc(N)n2)C1` (stereo not shown) [Example 294, N^4-(Cyclopropylmethyl)-6-[3-(methylamino)piperidin-1-yl]pyrimidine-2,4-diamine], the inhibition at 20 µM turned out to be 91%. As to `CNC1CN(c2cc(N3CCCCC3)nc(N)n2)C1` [Example 295, 4-[3-(Methylamino)azetidin-1-yl]-6-piperidin-1-ylpyrimidin-2-amine], the Ki was 3180 nM. Take `CN1CC[C@H](Nc2cc(NCCC(C)(C)C)ncn2)C1` [Example 296, N-(3,3-Dimethylbutyl)-N′-[(3S)-1-methylpyrrolidin-3-yl]pyrimidine-4,6-diamine]: the Ki was 3300 nM.

For the molecule `CC(C)(C)CNc1cc(N2C[C@H]3C[C@@]3(N)C2)ncn1` [Example 297, (1S,5R)-3-{6-[(2,2-Dimethylpropyl)amino]pyrimidin-4-yl}-3-azabicyclo[3.1.0]hexan-1-amine], the inhibition at 10 µM came to 30%. Consider `CNC1(C)CN(c2cc(NCCC(C)(C)C)nc(N)n2)C1` [Example 298, N^4-(3,3-Dimethylbutyl)-6-[3-methyl-3-(methylamino)azetidin-1-yl]pyrimidine-2,4-diamine], for which the “Method 1, activity at top dose (10 μM)” value is “No activity at top”. In the case of `Cn1ccnc1CN1CCN(c2cc(NCCC(C)(C)C)ncn2)CC1` [Example 299, N-(3,3-Dimethylbutyl)-6-{4-[(1-methyl-1H-imidazol-2-yl)methyl]piperazin-1-yl}pyrimidin-4-amine], the “Method 1, activity at top dose (10 μM)” value was “No activity at top”. For `CN(C)C1[C@H]2CN(c3cc(NCCC(C)(C)C)ncn3)C[C@@H]12` (stereo partly drawn) [Example 300, (1R*,5S*,6s*)-3-{6-[(3,3-Dimethylbutyl)amino]pyrimidin-4-yl}-N,N-dimethyl-3-azabicyclo[3.1.0]hexan-6-amine], the “Method 1, % at 10 μM” value is reported as 35% at 10 μM. As to `CC(C)(C)CCNc1cc(N2CCC(N3CCCC3)CC2)ncn1` [Example 301, N-(3,3-Dimethylbutyl)-6-(4-pyrrolidin-1-ylpiperidin-1-yl)pyrimidin-4-amine], the “Method 1, activity at top dose (10 μM)” value was “No activity at top”.

In turn, `CCN(CC)C1CCN(c2cc(NCC(C)(C)C)ncn2)C1` (stereo not shown) [Example 302, 6-[3-(Diethylamino)pyrrolidin-1-yl]-N-(2,2-dimethylpropyl)pyrimidin-4-amine] had an inhibition at 10 µM of 20%. Regarding `CC(C)(C)CNc1cc(N2CCN(C3CNC3)CC2)ncn1` [Example 303, 6-(4-Azetidin-3-ylpiperazin-1-yl)-N-(2,2-dimethylpropyl)pyrimidin-4-amine], the inhibition at 10 µM was 38%. As for `c1nc(NCC2CC2)cc(N2CCN(C3CCCCC3)CC2)n1` [Example 305, 6-(4-Cyclohexylpiperazin-1-yl)-N-(cyclopropylmethyl)pyrimidin-4-amine], the “Method 1, activity at top dose (10 μM)” value is reported as “No activity at top”. For `CCN(CC)CCN(C)c1cc(NCC2CC2)ncn1` [Example 306, N′-(Cyclopropylmethyl)-N-[2-(diethylamino)ethyl]-N-methylpyrimidine-4,6-diamine], the inhibition at 10 µM worked out at 18%.

`CC(C)(C)CCNc1cc(N2CCN(CCO)CC2)ncn1` [Example 307, 2-(4-{6-[(3,3-Dimethylbutyl)amino]pyrimidin-4-yl}piperazin-1-yl)ethanol] came in with an inhibition at 10 µM of 24%. Turning to `c1nc(NCC2CC2)cc(N2CCN(C3CNC3)CC2)n1` [Example 308, 6-(4-Azetidin-3-ylpiperazin-1-yl)-N-(cyclopropylmethyl)pyrimidin-4-amine], the “Method 1, activity at top dose (10 μM)” value is given as “No activity at top”. Consider `CN[C@H]1[C@@H]2CN(c3cc(NCCC(C)(C)C)nc(N)n3)C[C@@H]21` [Example 309, N^4-(3,3-Dimethylbutyl)-6-[(1R,5S,6s)-6-(methylamino)-3-azabicyclo[3.1.0]hex-3-yl]pyrimidine-2,4-diamine], for which the “Method 1, % at 10 μM” value is given as 26% at 10 μM. As for `C[C@@H]1CN(c2cc(NCC3CC3)nc(N)n2)CCN1` [Example 310, N^4-(Cyclopropylmethyl)-6-[(3R)-3-methylpiperazin-1-yl]pyrim idine-2,4-diamine], the “Method 1, activity at top dose (10 μM)” value is “No activity at top”. `Nc1nc(NCc2cc(F)ccc2F)cc(N2CC[C@@H](N)C2)n1` [Example 311, 6-[(3R)-3-Aminopyrrolidin-1-yl]-N^4-(2,5-difluorobenzyl)pyrimidine-2,4-diamine] had an inhibition at 20 µM of 80%. On to `CC(C)(C)CCNc1cc(N2CC(N3CCOCC3)C2)ncn1` [Example 312, N-(3,3-Dimethylbutyl)-6-(3-morpholin-4-ylazetidin-1-yl)pyrimidin-4-amine], for which the inhibition at 20 µM was 21%. Same read-out and setting: then `CCCNc1cc(N2CCN[C@H](C)C2)ncn1` [Example 313, 6-[(3R)-3-Methylpiperazin-1-yl]-N-propylpyrimidin-4-amine], with 70%. With `c1nc(NC2CC2)cc(N2CCCNCC2)n1` [Example 314, N-Cyclopropyl-6-(1,4-diazepan-1-yl)pyrimidin-4-amine], the “Method 1, activity at top dose (10 μM)” value was “No activity at top”. On to `c1ccc(CCNc2cc(N[C@H]3CCNC3)ncn2)cc1` [Example 315, N-(2-Phenylethyl)-N′-[(3S)-pyrrolidin-3-yl]pyrimidine-4,6-diamine], for which the Ki was 5190 nM. On to `CNC1CN(c2cc(NCc3cc(F)cc(F)c3)nc(N)n2)C1` [Example 316, N^4-(3,5-Difluorobenzyl)-6-[3-(methylamino)azetidin-1-yl]pyrimidine-2,4-diamine], for which the “Method 1, activity at top dose (10 μM)” value is given as “No activity at top”. Consider `CNC1CN(c2cc(NCc3c(F)cccc3F)nc(N)n2)C1` [Example 317, N^4-(2,6-Difluorobenzyl)-6-[3-(methylamino)azetidin-1-yl]pyrimidine-2,4-diamine], for which the “Method 1, activity at top dose (10 μM)” value is given as “No activity at top”. On to `CC(C)(C)CNc1cc(N2C[C@H]3CCCN[C@H]3C2)nc(N)n1` [Example 318, N^4-(2,2-Dimethylpropyl)-6-[(4aR,7aR)-octahydro-6H-pyrrolo[3,4-b]pyridin-6-yl]pyrimidine-2,4diamine], for which the “Method 1, activity at top dose (10 μM)” value was “No activity at top”.

In the case of `c1nc(NC[C@H]2CCCO2)cc(N[C@H]2CCNC2)n1` [Example 319, N-[(3S)-Pyrrolidin-3-yl]-N′-[(2R)-tetrahydrofuran-2-ylmethyl]pyrimidine-4,6-diamine], the Ki is 6010 nM. `CNc1cc(N2CCC(C)(N)C2)nc(N)n1` (stereo not shown) [Example 320, 6-(3-Amino-3-methylpyrrolidin-1-yl)-N^4-methylpyrimidine-2,4-diamine]: the “Method 1, % at 6.3 μM” value (at 6.3 μM) was determined as 46% at 6.3 μM.

As to `CNc1cc(N2CCCC(NC)C2)nc(N)n1` (stereo not shown) [Example 321, N^4-Methyl-6-[3-(methylamino)piperidin-1-yl]pyrimidine-2,4-diamine], the inhibition at 20 µM amounted to 15%. With `Nc1nc(NCC2CC2)cc(N2CC(N3CCOCC3)C2)n1` [Example 322, N^4-(Cyclopropylmethyl)-6-(3-morpholin-4-ylazetidin-1-yl)pyrimidine-2,4-diamine], the inhibition at 20 µM was 57%.

`CCCNc1cc(N2CCCC(NC)C2)nc(N)n1` (stereo not shown) [Example 323, 6-[3-(Methylamino)piperidin-1-yl]-N^4-propylpyrimidine-2,4-diamine]: the inhibition at 20 µM was 85%. `CCNc1cc(N2CCCC(NC)C2)nc(N)n1` (stereo not shown) [Example 324, N^4-Ethyl-6-[3-(methylamino)piperidin-1-yl]pyrimidine-2,4-diamine] displayed an inhibition at 20 µM of 55%. In turn, `CN[C@@H]1CCN(c2cc(NCc3ccc(F)cc3F)nc(N)n2)C1` [Example 325, N^4-(2,4-Difluorobenzyl)-6-[(3R)-3-(methylamino)pyrrolidin-1-yl]pyrimidine-2,4-diamine] showed an inhibition at 20 µM of 43%. Take `CN[C@@H]1CCN(c2ncnc(NCC(C)(C)C)c2C)C1` [Example 326, N-(2,2-Dimethylpropyl)-5-methyl-6-[(3R)-3-(methylamino)pyrrolidin-1-yl]pyrimidin-4-amine]: testing at 20 µM gave an inhibition of 48%.
